# Results as given in PMC10046369, “Low-Affinity/High-Selectivity Dopamine Transport Inhibition Sufficient to Rescue Cognitive Functions in the Aging Rat” (Biomolecules, 2023).
# Columns and labels:
# Test in all cases: cell-based
# Design in all cases: Eurofins Cerep functional GPCR screen, antagonist mode, inhibition of control agonist response
# Conditions in all cases: read-out: % Inhibition of Control Agonist Response, Mean
# A1 = target: T1, A1 (Homo sapiens, UniProt P30542)
# T1 construct: gene ADORA1
# T1 sequence (P30542 whole entry): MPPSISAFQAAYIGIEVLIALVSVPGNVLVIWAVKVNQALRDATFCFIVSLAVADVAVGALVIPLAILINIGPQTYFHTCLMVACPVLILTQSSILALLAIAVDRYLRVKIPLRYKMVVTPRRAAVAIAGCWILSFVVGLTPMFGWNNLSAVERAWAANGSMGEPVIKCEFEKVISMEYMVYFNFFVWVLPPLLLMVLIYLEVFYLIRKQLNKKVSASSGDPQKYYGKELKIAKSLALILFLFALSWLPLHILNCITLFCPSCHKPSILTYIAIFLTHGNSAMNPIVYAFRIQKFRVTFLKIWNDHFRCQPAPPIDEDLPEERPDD
# A3 = target: T2, A3 (Homo sapiens, UniProt P0DMS8)
# T2 construct: gene ADORA3
# C3aR = target: T3, C3aR (Homo sapiens, UniProt Q16581)
# T3 construct: gene C3AR1
# T3 sequence (Q16581 whole entry): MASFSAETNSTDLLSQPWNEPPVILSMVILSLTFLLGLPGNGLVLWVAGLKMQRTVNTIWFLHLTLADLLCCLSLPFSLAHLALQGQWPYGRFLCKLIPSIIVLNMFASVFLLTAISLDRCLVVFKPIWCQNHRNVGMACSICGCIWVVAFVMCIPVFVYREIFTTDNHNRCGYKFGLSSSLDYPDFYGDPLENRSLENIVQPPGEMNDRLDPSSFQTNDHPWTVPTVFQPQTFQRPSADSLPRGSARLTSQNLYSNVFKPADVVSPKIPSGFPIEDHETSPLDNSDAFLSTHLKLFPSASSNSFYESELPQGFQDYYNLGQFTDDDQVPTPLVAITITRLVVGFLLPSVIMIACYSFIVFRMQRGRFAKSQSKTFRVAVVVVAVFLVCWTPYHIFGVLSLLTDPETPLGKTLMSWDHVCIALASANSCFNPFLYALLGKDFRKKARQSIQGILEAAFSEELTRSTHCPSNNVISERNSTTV
# CB1 = target: T4, CB1 (Homo sapiens, UniProt P21554)
# T4 construct: gene CNR1
# CB2 = target: T5, CB2 (Homo sapiens, UniProt P34972)
# T5 construct: gene CNR2
# T5 sequence (P34972 whole entry): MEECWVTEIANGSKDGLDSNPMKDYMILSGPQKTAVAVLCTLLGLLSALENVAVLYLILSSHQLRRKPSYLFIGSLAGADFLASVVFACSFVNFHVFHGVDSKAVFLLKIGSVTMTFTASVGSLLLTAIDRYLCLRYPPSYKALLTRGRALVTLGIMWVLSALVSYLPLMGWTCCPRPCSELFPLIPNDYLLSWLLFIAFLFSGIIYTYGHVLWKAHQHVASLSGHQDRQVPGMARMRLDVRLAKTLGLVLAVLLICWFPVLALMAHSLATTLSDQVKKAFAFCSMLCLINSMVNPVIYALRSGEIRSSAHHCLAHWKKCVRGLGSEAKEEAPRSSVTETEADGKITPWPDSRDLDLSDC
# CCR1 = CCR1 (Homo sapiens, UniProt P32246)
# CCR4 = CCR4 (Homo sapiens, UniProt P51679)
# CCR8 = CCR8 (Homo sapiens, UniProt P51685)
# Sequence of CCR8 (P51685 whole entry): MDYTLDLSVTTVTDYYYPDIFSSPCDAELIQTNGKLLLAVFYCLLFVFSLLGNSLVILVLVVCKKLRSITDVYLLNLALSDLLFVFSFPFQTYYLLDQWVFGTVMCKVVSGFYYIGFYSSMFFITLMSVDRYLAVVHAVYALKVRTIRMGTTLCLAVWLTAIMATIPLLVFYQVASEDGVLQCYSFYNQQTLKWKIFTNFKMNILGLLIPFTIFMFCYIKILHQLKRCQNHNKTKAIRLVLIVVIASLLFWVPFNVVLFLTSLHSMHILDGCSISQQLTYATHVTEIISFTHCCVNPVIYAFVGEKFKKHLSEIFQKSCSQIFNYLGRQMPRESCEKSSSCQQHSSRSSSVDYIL
# CRF1 = target: T6, CRF1 (Homo sapiens, UniProt P34998)
# T6 construct: gene CRHR1
# CXCR1 = CXCR1 (Homo sapiens, UniProt P25024)
# CXCR2 = CXCR2 (Homo sapiens, UniProt P25025)
# CXCR3 = CXCR3 (Homo sapiens, UniProt P49682)
# CXCR4 = CXCR4 (Homo sapiens, UniProt P61073)
# D2S = target: T7, D2S (Homo sapiens, UniProt P14416)
# T7 construct: gene DRD2; D2S short isoform
# T7 sequence (P14416 whole entry, canonical isoform): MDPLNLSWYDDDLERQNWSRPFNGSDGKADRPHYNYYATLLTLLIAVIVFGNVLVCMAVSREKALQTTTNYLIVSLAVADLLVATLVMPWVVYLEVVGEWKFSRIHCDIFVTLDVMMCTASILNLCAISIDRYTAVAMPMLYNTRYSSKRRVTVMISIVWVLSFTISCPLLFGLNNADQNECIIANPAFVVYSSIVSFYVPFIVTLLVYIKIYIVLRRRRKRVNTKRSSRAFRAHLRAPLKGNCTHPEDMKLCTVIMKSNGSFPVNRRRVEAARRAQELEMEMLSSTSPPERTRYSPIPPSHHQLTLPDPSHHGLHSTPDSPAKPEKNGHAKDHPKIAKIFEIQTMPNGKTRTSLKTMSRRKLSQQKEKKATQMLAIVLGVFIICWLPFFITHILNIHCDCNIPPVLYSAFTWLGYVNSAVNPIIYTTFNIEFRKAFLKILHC
# D3 = target: T8, D3 (Homo sapiens, UniProt P35462)
# T8 construct: gene DRD3
# FFA1 = target: T9, FFA1 (Homo sapiens, UniProt O14842)
# T9 construct: gene FFAR1
# GHRH = target: T10, GHRH (Homo sapiens, UniProt Q02643)
# T10 construct: gene GHRHR
# T10 sequence (Q02643 whole entry): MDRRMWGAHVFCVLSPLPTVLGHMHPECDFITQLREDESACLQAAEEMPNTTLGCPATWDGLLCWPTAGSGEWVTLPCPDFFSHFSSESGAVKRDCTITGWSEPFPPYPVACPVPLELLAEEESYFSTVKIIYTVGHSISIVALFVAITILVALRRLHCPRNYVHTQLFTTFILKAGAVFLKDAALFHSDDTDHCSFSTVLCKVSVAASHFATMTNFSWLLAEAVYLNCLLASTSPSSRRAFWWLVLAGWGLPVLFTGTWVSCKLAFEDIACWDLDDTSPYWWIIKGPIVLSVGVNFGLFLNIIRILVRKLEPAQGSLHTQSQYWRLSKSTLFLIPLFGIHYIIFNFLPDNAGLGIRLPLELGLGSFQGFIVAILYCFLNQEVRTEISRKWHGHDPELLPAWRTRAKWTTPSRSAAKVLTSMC
# GPR109A = target: T11, GPR109A (Homo sapiens, UniProt Q8TDS4)
# T11 construct: gene HCAR2
# T11 sequence (Q8TDS4 whole entry): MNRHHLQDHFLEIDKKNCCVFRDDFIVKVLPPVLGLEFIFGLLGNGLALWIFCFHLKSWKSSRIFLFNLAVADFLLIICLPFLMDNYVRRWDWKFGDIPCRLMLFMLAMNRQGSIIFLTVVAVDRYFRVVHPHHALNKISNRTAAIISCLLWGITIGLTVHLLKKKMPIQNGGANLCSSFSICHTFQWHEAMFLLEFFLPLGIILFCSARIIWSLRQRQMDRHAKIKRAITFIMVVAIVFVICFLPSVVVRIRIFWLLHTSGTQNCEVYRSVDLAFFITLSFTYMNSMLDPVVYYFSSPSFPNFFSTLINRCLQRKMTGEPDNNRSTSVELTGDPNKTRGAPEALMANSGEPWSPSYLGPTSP
# GPR39 = GPR39 (Homo sapiens, UniProt O43194)
# GnRH = target: T12, GnRH (Homo sapiens, UniProt P30968)
# T12 construct: gene GNRHR
# T12 sequence (P30968 whole entry): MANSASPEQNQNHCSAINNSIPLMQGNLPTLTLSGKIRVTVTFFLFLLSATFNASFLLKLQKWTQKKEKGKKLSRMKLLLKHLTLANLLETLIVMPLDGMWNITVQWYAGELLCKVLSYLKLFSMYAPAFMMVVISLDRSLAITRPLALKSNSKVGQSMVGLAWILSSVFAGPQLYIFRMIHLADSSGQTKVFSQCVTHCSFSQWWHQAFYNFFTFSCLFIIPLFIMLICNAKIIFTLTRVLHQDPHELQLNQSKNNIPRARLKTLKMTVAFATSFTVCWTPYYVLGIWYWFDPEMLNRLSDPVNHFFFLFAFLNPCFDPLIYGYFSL
# H1 = target: T13, H1 (Homo sapiens, UniProt P35367)
# T13 construct: gene HRH1
# T13 sequence (P35367 whole entry): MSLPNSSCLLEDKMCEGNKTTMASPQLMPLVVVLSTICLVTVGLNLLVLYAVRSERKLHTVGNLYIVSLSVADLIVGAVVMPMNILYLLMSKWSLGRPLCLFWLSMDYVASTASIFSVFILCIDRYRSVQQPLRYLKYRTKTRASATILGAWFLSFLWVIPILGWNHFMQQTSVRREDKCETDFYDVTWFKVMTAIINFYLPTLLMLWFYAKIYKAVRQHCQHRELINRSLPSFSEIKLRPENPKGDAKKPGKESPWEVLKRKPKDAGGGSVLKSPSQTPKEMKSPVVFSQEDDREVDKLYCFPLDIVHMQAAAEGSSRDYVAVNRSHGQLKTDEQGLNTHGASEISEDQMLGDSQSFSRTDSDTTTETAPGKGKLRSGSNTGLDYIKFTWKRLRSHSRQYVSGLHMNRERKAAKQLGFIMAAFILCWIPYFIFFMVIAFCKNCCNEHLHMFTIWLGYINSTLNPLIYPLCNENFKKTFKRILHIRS
# TGR5 = target: T14, TGR5 (Homo sapiens, UniProt Q8TDU6)
# T14 construct: gene GPBAR1
# TSH = target: T15, TSH (Homo sapiens, UniProt P16473)
# T15 construct: gene TSHR
# T15 sequence (P16473 whole entry): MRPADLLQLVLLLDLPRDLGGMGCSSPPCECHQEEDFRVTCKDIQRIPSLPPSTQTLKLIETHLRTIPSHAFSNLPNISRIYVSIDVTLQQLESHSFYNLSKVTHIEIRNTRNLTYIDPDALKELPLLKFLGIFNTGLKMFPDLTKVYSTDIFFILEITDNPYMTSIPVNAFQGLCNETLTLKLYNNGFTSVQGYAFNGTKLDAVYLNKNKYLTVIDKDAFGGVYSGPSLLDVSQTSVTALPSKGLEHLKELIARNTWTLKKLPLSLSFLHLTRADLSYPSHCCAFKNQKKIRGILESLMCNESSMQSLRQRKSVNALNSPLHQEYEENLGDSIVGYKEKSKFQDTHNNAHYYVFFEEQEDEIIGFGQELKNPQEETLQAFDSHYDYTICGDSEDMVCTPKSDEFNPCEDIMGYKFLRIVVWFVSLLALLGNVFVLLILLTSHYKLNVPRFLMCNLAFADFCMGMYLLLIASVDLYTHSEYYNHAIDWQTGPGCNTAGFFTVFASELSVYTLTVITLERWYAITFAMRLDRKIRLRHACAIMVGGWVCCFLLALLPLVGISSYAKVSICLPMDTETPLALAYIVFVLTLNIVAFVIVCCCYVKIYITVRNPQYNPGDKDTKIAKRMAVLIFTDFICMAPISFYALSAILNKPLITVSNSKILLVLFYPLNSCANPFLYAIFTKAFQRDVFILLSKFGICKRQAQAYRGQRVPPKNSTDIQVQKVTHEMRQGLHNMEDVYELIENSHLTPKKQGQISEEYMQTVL
# α1B = target: T16, α1B (Homo sapiens, UniProt P35368)
# T16 construct: gene ADRA1B
# T16 sequence (P35368 whole entry): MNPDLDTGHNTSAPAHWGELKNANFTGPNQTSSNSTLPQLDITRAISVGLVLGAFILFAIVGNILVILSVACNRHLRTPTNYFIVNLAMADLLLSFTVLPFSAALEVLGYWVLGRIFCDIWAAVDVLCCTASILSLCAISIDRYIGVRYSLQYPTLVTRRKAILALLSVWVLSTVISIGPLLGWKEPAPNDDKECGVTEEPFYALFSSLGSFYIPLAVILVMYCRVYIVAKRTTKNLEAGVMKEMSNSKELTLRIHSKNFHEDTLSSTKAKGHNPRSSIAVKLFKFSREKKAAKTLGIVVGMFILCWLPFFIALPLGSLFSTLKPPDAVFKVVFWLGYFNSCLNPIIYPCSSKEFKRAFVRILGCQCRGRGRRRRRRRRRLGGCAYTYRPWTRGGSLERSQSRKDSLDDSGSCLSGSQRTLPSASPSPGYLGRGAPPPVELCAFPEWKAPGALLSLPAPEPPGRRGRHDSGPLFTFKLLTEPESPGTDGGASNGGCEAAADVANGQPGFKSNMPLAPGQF
# α2A = target: T17, α2A (Homo sapiens, UniProt P08913)
# T17 construct: gene ADRA2A
# β2 = target: T18, β2 (Homo sapiens, UniProt P07550)
# T18 construct: gene ADRB2
structure (smiles),measurement,setting,value
"[O-][S@@+](Cc1cncs1)C(c1ccccc1)c1ccccc1 [S-CE-123, (S)-5-((Benzhydrylsulfinyl)Methyl)Thiazole]",inhibition at 2.8 µM,A1,10.6%
same,inhibition at 2.8 µM,A3,-1.8%
same,inhibition at 2.8 µM,C3aR,11.4%
same,inhibition at 2.8 µM,CB1,-2.1%
same,inhibition at 2.8 µM,CB2,8.6%
same,inhibition at 2.8 µM,CCR1,-1.5%
same,inhibition at 2.8 µM,CCR4,-5.8%
same,inhibition at 2.8 µM,CCR8,-19.9%
same,inhibition at 2.8 µM,CRF1,-16.9%
same,inhibition at 2.8 µM,CXCR1,-13%
same,inhibition at 2.8 µM,CXCR2,3.8%
same,inhibition at 2.8 µM,CXCR3,-7.8%
same,inhibition at 2.8 µM,CXCR4,-40.7%
same,inhibition at 2.8 µM,D2S,18.1%
same,inhibition at 2.8 µM,D3,-1.9%
same,inhibition at 2.8 µM,FFA1,-2.8%
same,inhibition at 2.8 µM,GHRH,11.7%
same,inhibition at 2.8 µM,GPR109A,-11.6%
same,inhibition at 2.8 µM,GPR39,1.6%
same,inhibition at 2.8 µM,GnRH,3.9%
same,inhibition at 2.8 µM,H1,-1.9%
same,inhibition at 2.8 µM,TGR5,-0.3%
same,inhibition at 2.8 µM,TSH,-6.1%
same,inhibition at 2.8 µM,α1B,-15.1%
same,inhibition at 2.8 µM,α2A,-8.4%
same,inhibition at 2.8 µM,β2,-1.2%
